# Results as given in article PMC11597207, “Synthesis and Anti-Inflammatory and Analgesic Potentials of Ethyl 2-(2,5-Dioxo-1-Phenylpyrrolidin-3-yl)-2-Methylpropanoate” (Pharmaceuticals, 2024).
# pIC50: −log10 of the molar value.
# Biological target: T1, COX-1 (Ovis aries, UniProt P05979)
# T1 construct: purchased Cayman Chemical Batch No.: A4570
# T1 sequence (P05979 25-600): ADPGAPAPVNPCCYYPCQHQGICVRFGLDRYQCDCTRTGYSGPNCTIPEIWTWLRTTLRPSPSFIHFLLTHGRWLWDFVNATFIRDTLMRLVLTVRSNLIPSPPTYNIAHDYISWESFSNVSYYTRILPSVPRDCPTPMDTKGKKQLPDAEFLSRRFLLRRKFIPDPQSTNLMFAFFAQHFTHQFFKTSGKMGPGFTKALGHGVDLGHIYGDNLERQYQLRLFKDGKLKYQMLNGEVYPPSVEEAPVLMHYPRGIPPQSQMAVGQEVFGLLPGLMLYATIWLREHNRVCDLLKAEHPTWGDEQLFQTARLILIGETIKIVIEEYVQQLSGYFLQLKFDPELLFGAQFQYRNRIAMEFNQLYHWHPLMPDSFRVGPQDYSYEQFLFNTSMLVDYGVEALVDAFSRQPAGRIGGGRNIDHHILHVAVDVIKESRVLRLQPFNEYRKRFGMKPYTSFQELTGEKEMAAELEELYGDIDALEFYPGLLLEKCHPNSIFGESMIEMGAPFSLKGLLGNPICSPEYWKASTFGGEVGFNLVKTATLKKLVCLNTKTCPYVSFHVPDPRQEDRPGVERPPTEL
# Assay: COX-1 inhibitory assay
# Type: biochemical, sheep
# Protocol: The inhibitory potential of synthesized MAK01 was evaluated using a COX-1 inhibitory assay. This utilized a solution of COX-1 enzymes derived from sheep, adhering to previous protocols. The COX-1 enzyme solution was prepared with a specific concentration. The concentration was set at 0.7–0.8 μg per 10 μL. The activation of the enzymes was achieved by taking and mixing 10 μL and 50 μL of the […] enzyme solution and a co-factor solution, respectively. This mixture was then cooled at 4 °C in an ice bucket for a duration of five to six minutes. As for the preparation of the co-factor solution, it began with 0.1 M Tris buffer, which was maintained at a pH of 8.0. To this buffer, 1 mM of hematin was added. Next, 0.9 mM of glutathione was mixed into the solution. Further, the solution was enriched with 0.24 mM of TMPD. After the co-factor solution, specific test samples were prepared. These samples were of a certain concentration and diluted to 20 μL in volume. These test samples were then mixed with 60 μL of the […] enzyme solution. Once the mixture was prepared, it was left undisturbed at room temperature. The duration for this standing period ranged from five to ten minutes. Subsequent to this resting period, 20 μL of 30 mM arachidonic acid was added. This addition served to initiate the reaction within the solution. Post initiation of the reaction, the solution underwent an incubation period. The solution was kept at a temperature of 37 °C. The incubation was allowed to continue for a total of 15 min. The final solution underwent an absorbance measurement. This was performed using a UV–visible spectrophotometer. Specifically, the measurement was made at a 570 nm wavelength. Similarly, the test samples in various concentrations were processed and analyzed using the same procedure. Using the absorbance value over time, the inhibition of the COX-1 enzyme was quantified.
# Using the following formulation, the percent inhibition for each sample was calculated. % Inhibition=Abs. test sample−Abs. background/Abs. solvent blank−Abs. background×100
smiles,measurement,setting,value
"CCOC(=O)C(C)(C)C1CC(=O)N(c2ccccc2)C1=O (centres unmarked) [MAK01, ethyl 2-(2,5-dioxo-1-phenylpyrrolidin-3-yl)-2-methylpropanoate]",pIC50,,2.96
same,COX-1 percent inhibition,62.50 μg/mL,32%
same,inhibition at 62.5 µg/mL,"62.50 μg/mL, read-out: COX-1 percent inhibition",31.5%
same,COX-1 percent inhibition,125 μg/mL,38%
same,inhibition at 125 µg/mL,"125 μg/mL, read-out: COX-1 percent inhibition",37.5%
same,COX-1 percent inhibition,250 μg/mL,46%
same,inhibition at 250 µg/mL,"250 μg/mL, read-out: COX-1 percent inhibition",45.8%
same,COX-1 percent inhibition,500 μg/mL,56%
same,inhibition at 500 µg/mL,"500 μg/mL, read-out: COX-1 percent inhibition",56.5%
same,COX-1 percent inhibition,1000 μg/mL,65%
same,inhibition at 1000 µg/mL,"1000 μg/mL, read-out: COX-1 percent inhibition",64.8%
